Measured values reported in ChEMBL document CHEMBL5608163, “Structure modification of anoplin for fighting resistant bacteria” (Eur J Med Chem, 2024).
Converted amounts (≈) assume the structure as drawn. Square brackets hold non-standard residues; d marks the D form. Peptide text beside a SMILES is read from it. * marks the point of attachment. Pentadecanoyl = CCCCCCCCCCCCCCC(=O)*; NMeR = CN[C@@H](CCCNC(=N)N)C(=O)O; Tridecanoyl = CCCCCCCCCCCCC(=O)*; Undecanoyl = CCCCCCCCCCC(=O)*; NMeK = CN[C@@H](CCCCN)C(=O)O

What was measured:
[1] = Hemolytic activity in human RBC assessed as hemolysis; assay type: toxicity, cell-based, Erythrocyte; settings: red blood cells
Staphylococcus aureus [2] = experiment: Antibacterial activity against Staphylococcus aureus ATCC 25923 assessed as reduction in bacterial growth incubated for 24 hrs by serial dilution method; assay type: functional
Escherichia coli [3] = experiment: Antibacterial activity against Escherichia coli ATCC 25922 assessed as bacterial growth inhibition measured after 48 hrs by resazurin assay; assay type: functional
Staphylococcus aureus [4] = experiment: Antibacterial activity against Staphylococcus aureus; assay type: functional
Escherichia coli [5] = experiment: Antibacterial activity against Escherichia coli; assay type: functional
[6] = Hemolytic activity in mouse Red blood cells incubated for 1 hr by microplate reader assay; assay type: toxicity, cell-based, Erythrocyte; settings: red blood cells
Staphylococcus aureus [7] = experiment: Antibacterial activity against Staphylococcus aureus ATCC 25923 assessed as reduction in bacterial cell growth measured for 18 hrs by Mueller-Hinton broth based two-fold serial dilution method; assay type: functional
Bacillus subtilis = experiment: Antibacterial activity against Bacillus subtilis ATCC 23857 assessed as reduction in bacterial cell growth measured for 18 hrs by Mueller-Hinton broth based two-fold serial dilution method; assay type: functional
Escherichia coli [8] = experiment: Antibacterial activity against Escherichia coli ATCC 25922 assessed as reduction in bacterial cell growth measured for 18 hrs by Mueller-Hinton broth based two-fold serial dilution method; assay type: functional
Pseudomonas aeruginosa = experiment: Antibacterial activity against Pseudomonas aeruginosa ATCC 27853 assessed as reduction in bacterial cell growth measured for 18 hrs by Mueller-Hinton broth based two-fold serial dilution method; assay type: functional
Klebsiella pneumoniae = experiment: Antibacterial activity against Klebsiella pneumoniae ATCC 700603 assessed as reduction in bacterial cell growth measured for 18 hrs by Mueller-Hinton broth based two-fold serial dilution method; assay type: functional
[9] = Hemolytic activity in mouse erythrocyte incubated for 1 hr by microplate reader analysis; assay type: toxicity, cell-based; settings: erythrocytes

| SMILES | MIC (Staphylococcus aureus [2]) [µM] | MIC (Escherichia coli [3]) [µM] | MIC (Staphylococcus aureus [4]) [µM] | MIC (Escherichia coli [5]) [µM] | MIC (Staphylococcus aureus [7]) [µM] | MIC (Bacillus subtilis) [µM] | MIC (Escherichia coli [8]) [µM] | MIC (Pseudomonas aeruginosa) [µM] | MIC (Klebsiella pneumoniae) [µM] | HC50 [1] [µM] | HC50 at 1 h [6] [µM] | HC50 at 1 h [9] [µM] |
| --- | --- | --- | --- | --- | --- | --- | --- | --- | --- | --- | --- | --- |
| CC[C@H](C)[C@H](NC(=O)[C@@H](NC(=O)[C@H](CCCCN)NC(=O)[C@H](CC(C)C)NC(=O)[C@H](CC(C)C)NC(=O)CN)C(C)C)C(=O)N[C@@H](CCCCN)C(=O)N[C@H](C(=O)N[C@@H](CC(C)C)C(=O)N[C@@H](CC(C)C)C(N)=O)C(C)C (H-GLLKVIKVLL-NH2) |  |  | 12.8 (≈ 14 µg/mL) | 25.6 (≈ 28 µg/mL) |  |  |  |  |  | 190 |  |  |
| CC[C@H](C)[C@H](NC(=O)[C@H](CCCNC(=N)N)NC(=O)[C@H](CCCCN)NC(=O)[C@H](CC(C)C)NC(=O)[C@H](CC(C)C)NC(=O)[C@@H](N)CCCCN)C(=O)N[C@@H](CCCCN)C(=O)N[C@@H](CCCCN)C(=O)N[C@@H](CC(C)C)C(=O)N[C@@H](CC(C)C)C(N)=O (H-KLLKRIKKLL-NH2) |  |  | 22.4 (≈ 28 µg/mL) | 29.6 (≈ 37.1 µg/mL) |  |  |  |  |  | 193 |  |  |
| CC[C@H](C)[C@H](NC(=O)[C@H](CCCNC(=N)N)NC(=O)[C@H](CCCCN)NC(=O)[C@H](CC(C)C)NC(=O)[C@H](CC(C)C)NC(=O)[C@@H](N)CCCCN)C(=O)N[C@@H](CCCCN)C(=O)N[C@H](C(=O)N[C@@H](CC(C)C)C(=O)N[C@@H](CC(C)C)C(N)=O)[C@@H](C)O (H-KLLKRIKTLL-NH2) |  |  | > 19.6 | 19.6 (≈ 24 µg/mL) |  |  |  |  |  | 29.3 |  |  |
| CC[C@H](C)[C@H](NC(=O)[C@@H](NC(=O)[C@H](CCCCN)NC(=O)[C@H](CC(C)C)NC(=O)[C@H](CC(C)C)NC(=O)[C@@H](N)CCCCN)C(C)C)C(=O)N[C@@H](CCCCN)C(=O)N[C@@H](CCCCN)C(=O)N[C@@H](CC(C)C)C(=O)N[C@@H](CC(C)C)C(N)=O (H-KLLKVIKKLL-NH2) |  |  | 7.5 (≈ 8.96 µg/mL) | 5 (≈ 5.97 µg/mL) |  |  |  |  |  |  |  |  |
| CCCCCCCCCCCCCCC(=O)NCC(=O)N[C@@H](CC(C)C)C(=O)N[C@@H](CC(C)C)C(=O)N[C@@H](CCCCN)C(=O)N(C)[C@@H](CCCNC(=N)N)C(=O)N[C@H](C(=O)N(C)[C@@H](CCCCN)C(=O)N[C@H](C(=O)N[C@@H](CC(C)C)C(=O)N[C@@H](CC(C)C)C(N)=O)[C@@H](C)O)[C@@H](C)CC (Pentadecanoyl-GLLK[NMeR]I[NMeK]TLL-NH2) |  |  |  |  | 16 (≈ 22.5 µg/mL) | 8 (≈ 11.2 µg/mL) | 16 (≈ 22.5 µg/mL) | 16 (≈ 22.5 µg/mL) | 32 (≈ 45 µg/mL) |  | 64 | 64 |
| CCCCCCCCCCCCCCC(=O)NCC(=O)N[C@@H](CC(C)C)C(=O)N[C@@H](CC(C)C)C(=O)N(C)[C@@H](CCCCN)C(=O)N[C@@H](CCCNC(=N)N)C(=O)N[C@H](C(=O)N(C)[C@@H](CCCCN)C(=O)N[C@H](C(=O)N[C@@H](CC(C)C)C(=O)N[C@@H](CC(C)C)C(N)=O)[C@@H](C)O)[C@@H](C)CC (Pentadecanoyl-GLL[NMeK]RI[NMeK]TLL-NH2) |  |  |  |  | 8 (≈ 11.2 µg/mL) | 8 (≈ 11.2 µg/mL) | 16 (≈ 22.5 µg/mL) | 16 (≈ 22.5 µg/mL) | 32 (≈ 45 µg/mL) |  | 64 | 64 |
| CCCCCCCCCCCCC(=O)NCC(=O)N[C@@H](CC(C)C)C(=O)N[C@@H](CC(C)C)C(=O)N[C@@H](CCCCN)C(=O)N(C)[C@@H](CCCNC(=N)N)C(=O)N[C@H](C(=O)N(C)[C@@H](CCCCN)C(=O)N[C@H](C(=O)N[C@@H](CC(C)C)C(=O)N[C@@H](CC(C)C)C(N)=O)[C@@H](C)O)[C@@H](C)CC (Tridecanoyl-GLLK[NMeR]I[NMeK]TLL-NH2) |  |  |  |  | 8 (≈ 11 µg/mL) | 4 (≈ 5.51 µg/mL) | 8 (≈ 11 µg/mL) | 8 (≈ 11 µg/mL) | 32 (≈ 44.1 µg/mL) |  | 64 | 64 |
| CCCCCCCCCCCCC(=O)NCC(=O)N[C@@H](CC(C)C)C(=O)N[C@@H](CC(C)C)C(=O)N(C)[C@@H](CCCCN)C(=O)N[C@@H](CCCNC(=N)N)C(=O)N[C@H](C(=O)N(C)[C@@H](CCCCN)C(=O)N[C@H](C(=O)N[C@@H](CC(C)C)C(=O)N[C@@H](CC(C)C)C(N)=O)[C@@H](C)O)[C@@H](C)CC (Tridecanoyl-GLL[NMeK]RI[NMeK]TLL-NH2) |  |  |  |  | 8 (≈ 11 µg/mL) | 4 (≈ 5.51 µg/mL) | 16 (≈ 22 µg/mL) | 8 (≈ 11 µg/mL) | 64 (≈ 88.2 µg/mL) |  | 64 | 64 |
| CCCCCCCCCCC(=O)NCC(=O)N[C@@H](CC(C)C)C(=O)N[C@@H](CC(C)C)C(=O)N[C@@H](CCCCN)C(=O)N(C)[C@@H](CCCNC(=N)N)C(=O)N[C@H](C(=O)N(C)[C@@H](CCCCN)C(=O)N[C@H](C(=O)N[C@@H](CC(C)C)C(=O)N[C@@H](CC(C)C)C(N)=O)[C@@H](C)O)[C@@H](C)CC (Undecanoyl-GLLK[NMeR]I[NMeK]TLL-NH2) |  |  |  |  | 32 (≈ 43.2 µg/mL) | 8 (≈ 10.8 µg/mL) | 16 (≈ 21.6 µg/mL) | 8 (≈ 10.8 µg/mL) | 128 (≈ 173 µg/mL) |  | > 256 | > 256 |
| CCCCCCCCCCC(=O)NCC(=O)N[C@@H](CC(C)C)C(=O)N[C@@H](CC(C)C)C(=O)N(C)[C@@H](CCCCN)C(=O)N[C@@H](CCCNC(=N)N)C(=O)N[C@H](C(=O)N(C)[C@@H](CCCCN)C(=O)N[C@H](C(=O)N[C@@H](CC(C)C)C(=O)N[C@@H](CC(C)C)C(N)=O)[C@@H](C)O)[C@@H](C)CC (Undecanoyl-GLL[NMeK]RI[NMeK]TLL-NH2) |  |  |  |  | 32 (≈ 43.2 µg/mL) | 4 (≈ 5.4 µg/mL) | 32 (≈ 43.2 µg/mL) | 8 (≈ 10.8 µg/mL) | > 128 |  | > 256 | > 256 |

Further lines, with some results ahead:

| MIC (Staphylococcus aureus [2]) [µM] | MIC (Escherichia coli [3]) [µM] | MIC (Staphylococcus aureus [4]) [µM] | MIC (Escherichia coli [5]) [µM] | MIC (Staphylococcus aureus [7]) [µM] | MIC (Bacillus subtilis) [µM] | MIC (Escherichia coli [8]) [µM] | MIC (Pseudomonas aeruginosa) [µM] | MIC (Klebsiella pneumoniae) [µM] | SMILES | HC50 [1] [µM] | HC50 at 1 h [6] [µM] | HC50 at 1 h [9] [µM] |
| --- | --- | --- | --- | --- | --- | --- | --- | --- | --- | --- | --- | --- |
| 6.7 (≈ 8.04 µg/mL) | 6.7 (≈ 8.04 µg/mL) |  |  |  |  |  |  |  | CC[C@H](C)[C@H](NC(=O)[C@H](CCCNC(=N)N)NC(=O)[C@H](CCCCN)NC(=O)[C@H](CC(C)C)NC(=O)[C@H](CC(C)C)NC(=O)CN)C(=O)N[C@@H](CCCCN)C(=O)N[C@@H](Cc1ccccc1)C(=O)N[C@@H](CC(C)C)C(=O)N[C@@H](CC(C)C)C(N)=O (H-GLLKRIKFLL-NH2) | 326 |  |  |
| 12 (≈ 14 µg/mL) | 7.7 (≈ 8.97 µg/mL) |  |  |  |  |  |  |  | CC[C@H](C)[C@H](NC(=O)[C@H](CCCCN)NC(=O)[C@@H](NC(=O)[C@H](CCCNC(=N)N)NC(=O)[C@H](CCCCN)NC(=O)[C@H](CC(C)C)NC(=O)[C@H](CC(C)C)NC(=O)CN)[C@@H](C)CC)C(=O)N[C@@H](CC(C)C)C(=O)N[C@@H](CC(C)C)C(N)=O (H-GLLKRIKILL-NH2) | 81.8 |  |  |
| 6 (≈ 6.99 µg/mL) | 11.2 (≈ 13.1 µg/mL) |  |  |  |  |  |  |  | CC[C@H](C)[C@H](NC(=O)[C@H](CCCNC(=N)N)NC(=O)[C@H](CCCCN)NC(=O)[C@H](CC(C)C)NC(=O)[C@H](CC(C)C)NC(=O)CN)C(=O)N[C@@H](CCCCN)C(=O)N[C@@H](CC(C)C)C(=O)N[C@@H](CC(C)C)C(=O)N[C@@H](CC(C)C)C(N)=O (H-GLLKRIKLLL-NH2) | 102 |  |  |
| 10.3 (≈ 12 µg/mL) | 18.9 (≈ 22 µg/mL) |  |  |  |  |  |  |  | CC[C@H](C)[C@H](NC(=O)[C@H](CCCNC(=N)N)NC(=O)[C@H](CCCCN)NC(=O)[C@H](CC(C)C)NC(=O)[C@H](CC(C)C)NC(=O)CN)C(=O)N[C@@H](CCCCN)C(=O)N[C@@H](CC(N)=O)C(=O)N[C@@H](CC(C)C)C(=O)N[C@@H](CC(C)C)C(N)=O (H-GLLKRIKNLL-NH2) | 79.2 |  |  |
| 19.1 (≈ 22 µg/mL) | 19.1 (≈ 22 µg/mL) |  |  |  |  |  |  |  | CC[C@H](C)[C@H](NC(=O)[C@H](CCCNC(=N)N)NC(=O)[C@H](CCCCN)NC(=O)[C@H](CC(C)C)NC(=O)[C@H](CC(C)C)NC(=O)CN)C(=O)N[C@@H](CCCCN)C(=O)N[C@H](C(=O)N[C@@H](CC(C)C)C(=O)N[C@@H](CC(C)C)C(N)=O)C(C)C (H-GLLKRIKVLL-NH2) | 69.5 |  |  |
|  |  | 5.8 (≈ 7.05 µg/mL) | 2.5 (≈ 3.04 µg/mL) |  |  |  |  |  | CC[C@H](C)[C@H](NC(=O)[C@H](Cc1ccccc1)NC(=O)[C@H](CCCCN)NC(=O)[C@H](CC(C)C)NC(=O)[C@H](CC(C)C)NC(=O)[C@@H](N)CCCCN)C(=O)N[C@@H](CCCCN)C(=O)N[C@H](C(=O)N[C@@H](CC(C)C)C(=O)N[C@@H](CC(C)C)C(N)=O)[C@@H](C)O (H-KLLKFIKTLL-NH2) | 295 |  |  |
